The source of these data is patent US20250282768A1 (Janssen Pharmaceutica NV, priority 2022, published 2025).

This test relates to p-IKKa levels in L363 (NIK translocated multiple myeloma) cells. In words: Assay 2: Effect of compounds on p-IKKa levels in L363 (NIK translocated multiple myeloma) cells. It counts as cell-based. Particulars: Homo sapiens, L-363, 6 h, read-out: Assay 2 IC50 (nM), p-IKKa (Ser 176/180) in BAFF stimulated L363 cells with MG132, 6 h; average if tested more than once. The procedure, abridged: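 Read-out is p-IKKa Ser176/180 by AlphaLISA SureFire in lysates. Cells were BAFF-primed (250 ng/ml) overnight or left unstimulated, then exposed 6 h at 37 °C to compound with MG132 (10 μM), 0.3% DMSO. IC50 from sigmoidal curve fit, normalized between stimulated and unstimulated controls.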
Regarding `CN1CC[C@@](O)(c2cc(-c3cccc(-c4ccnc(Nc5cnn(C)c5N)n4)c3)no2)C1=O` [Example 21, (R)-3-(3-(3-(2-((5-Amino-1-methyl-1H-pyrazol-4-yl)amino)pyrimidin-4-yl)phenyl)isoxazol-5-yl)-3-hydroxy-1-methylpyrrolidin-2-one], the IC50 is more than 500 nM.
Regarding `CN1CC[C@@](O)(c2cc(-c3cccc(-c4ccnc(Nc5cc6n(n5)CCOC6)n4)c3)no2)C1=O` [Example 22, (R)-3-(3-(3-(2-((6,7-Dihydro-4H-pyrazolo[5,1-c][1,4]oxazin-2-yl)amino)pyrimidin-4-yl)phenyl)isoxazol-5-yl)-3-hydroxy-1-methylpyrrolidin-2-one], the IC50 was more than 500 nM.
The value for `CN1CCn2nc(Nc3nccc(-c4cccc(-c5cc([C@]6(O)CCN(C)C6=O)on5)c4)n3)cc2C1=O` [Example 23, (R)-2-((4-(3-(5-(3-Hydroxy-1-methyl-2-oxopyrrolidin-3-yl)isoxazol-3-yl)phenyl)pyrimidin-2-yl)amino)-5-methyl-6,7-dihydropyrazolo[1,5-a]pyrazin-4(5H)-one] was 50 to 500 nM; that for `Cc1ncccc1Nc1nccc(-c2cccc(-c3cc([C@]4(O)CCN(C)C4=O)on3)c2)n1` [Example 24, (R)-3-Hydroxy-1-methyl-3-(3-(3-(2-((2-methylpyridin-3-yl)amino)pyrimidin-4-yl)phenyl)isoxazol-5-yl)pyrrolidin-2-one] was 50 to 500 nM.
The value for `CN1CC[C@@](O)(c2cc(-c3cccc(-c4ccnc(Nc5ccn(C)n5)n4)c3)no2)C1=O` [Example 25, (R)-3-Hydroxy-1-methyl-3-(3-(3-(2-((1-methyl-1H-pyrazol-3-yl)amino)pyrimidin-4-yl)phenyl)isoxazol-5-yl)pyrrolidin-2-one] was 50 to 500 nM.
The value for `CN1CC[C@@](O)(c2cc(-c3cccc(-c4ccnc(Nc5ccnn5C)n4)n3)no2)C1=O` [Example 26, (R)-3-Hydroxy-1-methyl-3-(3-(6-(2-((1-methyl-1H-pyrazol-5-yl)amino)pyrimidin-4-yl)pyridin-2-yl)isoxazol-5-yl)pyrrolidin-2-one] was less than 50 nM; that for `CN1CC(F)(F)[C@@](O)(c2cc(-c3cccc(-c4ccnc(Nc5ccn(C)n5)n4)n3)no2)C1=O` [Example 27, (R)-4,4-Difluoro-3-hydroxy-1-methyl-3-(3-(6-(2-((1-methyl-1H-pyrazol-3-yl)amino)pyrimidin-4-yl)pyridin-2-yl)isoxazol-5-yl)pyrrolidin-2-one] was less than 50 nM; that for `CN1CC[C@@](O)(c2cc(-c3cccc(-c4ccnc(Nc5cn(CC(F)F)nc5OC5CC5)n4)n3)no2)C1=O` [Example 28, (R)-3-(3-(6-(2-((3-Cyclopropoxy-1-(2,2-difluoroethyl)-1H-pyrazol-4-yl)amino)pyrimidin-4-yl)pyridin-2-yl)isoxazol-5-yl)-3-hydroxy-1-methylpyrrolidin-2-one] was less than 50 nM.
Turning to `Cc1nn(C)cc1Nc1nccc(-c2cccc(-c3cc([C@]4(O)CCN(C)C4=O)on3)n2)n1` [Example 29, (R)-3-(3-(6-(2-((1,3-Dimethyl-1H-pyrazol-4-yl)amino)pyrimidin-4-yl)pyridin-2-yl)isoxazol-5-yl)-3-hydroxy-1-methylpyrrolidin-2-one], the IC50 is less than 50 nM.
The value for `CN1CC[C@@](O)(c2cc(-c3cccc(-c4ccnc(Nc5cnn(C)c5)n4)n3)on2)C1=O` [Example 30, (R)-3-Hydroxy-1-methyl-3-(5-(6-(2-((1-methyl-1H-pyrazol-4-yl)amino)pyrimidin-4-yl)pyridin-2-yl)isoxazol-3-yl)pyrrolidin-2-one] was less than 50 nM; that for `CN1CC[C@@](O)(c2cc(-c3cccc(-c4ccnc(-n5ccc(N)n5)n4)n3)no2)C1=O` [Example 32, (R)-3-(3-(6-(2-(3-Amino-1H-pyrazol-1-yl)pyrimidin-4-yl)pyridin-2-yl)isoxazol-5-yl)-3-hydroxy-1-methylpyrrolidin-2-one] was more than 500 nM; that for `CN1CC[C@@](O)(c2cc(-c3cccc(-c4ccnc(Nc5c[nH]nc5C(F)(F)F)n4)n3)no2)C1=O` [Example 33, (R)-3-Hydroxy-1-methyl-3-(3-(6-(2-((3-(trifluoromethyl)-1H-pyrazol-4-yl)amino)pyrimidin-4-yl)pyridin-2-yl)isoxazol-5-yl)pyrrolidin-2-one] was more than 500 nM.
The value for `Cc1cn[nH]c1Nc1nccc(-c2cccc(-c3cc([C@]4(O)CCN(C)C4=O)on3)n2)n1` [Example 34, (R)-3-Hydroxy-1-methyl-3-(3-(6-(2-((4-methyl-1H-pyrazol-5-yl)amino)pyrimidin-4-yl)pyridin-2-yl)isoxazol-5-yl)pyrrolidin-2-one] was 50 to 500 nM; that for `Cc1cnn(-c2nccc(-c3cccc(-c4cc([C@]5(O)CCN(C)C5=O)on4)n3)n2)c1N` [Example 35, (R)-3-(3-(6-(2-(5-Amino-4-methyl-1H-pyrazol-1-yl)pyrimidin-4-yl)pyridin-2-yl)isoxazol-5-yl)-3-hydroxy-1-methylpyrrolidin-2-one] was more than 500 nM.
The same measure for `Cc1n[nH]cc1Nc1nccc(-c2cccc(-c3cc([C@]4(O)CCN(C)C4=O)on3)n2)n1` [Example 36, (R)-3-Hydroxy-1-methyl-3-(3-(6-(2-((3-methyl-1H-pyrazol-4-yl)amino)pyrimidin-4-yl)pyridin-2-yl)isoxazol-5-yl)pyrrolidin-2-one]: less than 50 nM; for `Cc1nn(-c2nccc(-c3cccc(-c4cc([C@]5(O)CCN(C)C5=O)on4)n3)n2)cc1N` [Example 37, (R)-3-(3-(6-(2-(4-Amino-3-methyl-1H-pyrazol-1-yl)pyrimidin-4-yl)pyridin-2-yl)isoxazol-5-yl)-3-hydroxy-1-methylpyrrolidin-2-one]: more than 500 nM; for `CN1CC[C@@](O)(c2cc(-c3cccc(-c4ccnc(Nc5cnn6cccnc56)n4)n3)no2)C1=O` [Example 38, (R)-3-Hydroxy-1-methyl-3-(3-(6-(2-(pyrazolo[1,5-a]pyrimidin-3-ylamino)pyrimidin-4-yl)pyridin-2-yl)isoxazol-5-yl)pyrrolidin-2-one]: less than 50 nM.
`CN1CC[C@@](O)(c2cc(-c3cccc(-c4ccnc(-n5cc(N)cn5)n4)n3)no2)C1=O` [Example 39, (R)-3-(3-(6-(2-(4-Amino-1H-pyrazol-1-yl)pyrimidin-4-yl)pyridin-2-yl)isoxazol-5-yl)-3-hydroxy-1-methylpyrrolidin-2-one]: the IC50 was more than 500 nM.
Take `CN1CC[C@@](O)(c2cc(-c3cccc(-c4ccnc(Nc5cn[nH]c5)n4)n3)no2)C1=O` [Example 40, (R)-3-(3-(6-(2-((1H-Pyrazol-4-yl)amino)pyrimidin-4-yl)pyridin-2-yl)isoxazol-5-yl)-3-hydroxy-1-methylpyrrolidin-2-one]: the IC50 was less than 50 nM.
The same measure for `Cc1nocc1Nc1nccc(-c2cccc(-c3cc([C@]4(O)CCN(C)C4=O)on3)n2)n1` [Example 41, (R)-3-Hydroxy-1-methyl-3-(3-(6-(2-((3-methylisoxazol-4-yl)amino)pyrimidin-4-yl)pyridin-2-yl)isoxazol-5-yl)pyrrolidin-2-one]: less than 50 nM.
The same measure for `CN1CC[C@@](O)(c2cc(-c3cccc(-c4ccnc(Nc5cnn(CC(F)(F)F)c5)n4)n3)no2)C1=O` [Example 42, (R)-3-Hydroxy-1-methyl-3-(3-(6-(2-((1-(2,2,2-trifluoroethyl)-1H-pyrazol-4-yl)amino)pyrimidin-4-yl)pyridin-2-yl)isoxazol-5-yl)pyrrolidin-2-one]: less than 50 nM; for `CN1CC[C@@](O)(c2cc(-c3cccc(-c4ccnc(NC5(c6cnn(C)c6)CC5)n4)n3)no2)C1=O` [Example 45, (R)-3-Hydroxy-1-methyl-3-(3-(6-(2-((1-(1-methyl-1H-pyrazol-4-yl)cyclopropyl)amino)pyrimidin-4-yl)pyridin-2-yl)isoxazol-5-yl)pyrrolidin-2-one]: more than 500 nM; for `CCn1cc(Nc2nccc(-c3cccc(-c4cc([C@]5(O)CCN(C)C5=O)on4)n3)n2)cn1` [Example 46, (R)-3-(3-(6-(2-((1-Ethyl-1H-pyrazol-4-yl)amino)pyrimidin-4-yl)pyridin-2-yl)isoxazol-5-yl)-3-hydroxy-1-methylpyrrolidin-2-one]: less than 50 nM.
The same measure for `CN1CC[C@@](O)(c2cc(-c3cccc(-c4ccnc(Nc5ccn(C)n5)n4)n3)no2)C1=O` [Example 47, (R)-3-Hydroxy-1-methyl-3-(3-(6-(2-((1-methyl-1H-pyrazol-3-yl)amino)pyrimidin-4-yl)pyridin-2-yl)isoxazol-5-yl)pyrrolidin-2-one]: less than 50 nM; for `COc1nn(CCO)cc1Nc1nccc(-c2cccc(-c3cc([C@]4(O)CCN(C)C4=O)on3)n2)n1` [Example 48, (R)-3-Hydroxy-3-(3-(6-(2-((1-(2-hydroxyethyl)-3-methoxy-1H-pyrazol-4-yl)amino)pyrimidin-4-yl)pyridin-2-yl)isoxazol-5-yl)-1-methylpyrrolidin-2-one]: less than 50 nM; for `COc1nn(CC(C)(C)O)cc1Nc1nccc(-c2cccc(-c3cc([C@]4(O)CCN(C)C4=O)on3)n2)n1` [Example 49, (R)-3-Hydroxy-3-(3-(6-(2-((1-(2-hydroxy-2-methylpropyl)-3-methoxy-1H-pyrazol-4-yl)amino)pyrimidin-4-yl)pyridin-2-yl)isoxazol-5-yl)-1-methylpyrrolidin-2-one]: less than 50 nM.
For `Cc1cn(C2CC(O)C2)nc1Nc1nccc(-c2cccc(-c3cc([C@]4(O)CCN(C)C4=O)on3)n2)n1` (stereo partly drawn) [Example 50, (R)-3-Hydroxy-3-(3-(6-(2-((1-(3-hydroxycyclobutyl)-4-methyl-1H-pyrazol-3-yl)amino)pyrimidin-4-yl)pyridin-2-yl)isoxazol-5-yl)-1-methylpyrrolidin-2-one], the IC50 is less than 50 nM.
The same measure for `CN1CC[C@@](O)(c2cc(-c3cccc(-c4ccnc(Nc5cnn(C)c5)n4)n3)no2)C1=O` [Example 52, (R)-3-Hydroxy-1-methyl-3-(3-(6-(2-((1-methyl-1H-pyrazol-4-yl)amino)pyrimidin-4-yl)pyridin-2-yl)isoxazol-5-yl)pyrrolidin-2-one]: less than 50 nM.
